US20250134844A1, “THERAPEUTIC USE OF PLEUROMUTILINS” (Nabriva Therapeutics GmbH, priority 2022, published 2025)
Converted amounts (≈) assume the structure as drawn. Like-named read-outs stand apart in the source and are kept apart here.

Experiments:
[1] = system: Borreliella spp.; assay: MIC by broth microdilution against Borreliella isolates; format: cell-based; details: range over 6 isolates (5 B. burgdorferi, 1 B. garinii)
Method: Minimal inhibitory concentrations (MIC) were determined against five (n=5) Borreliella burgdorferi isolates (ATCC 51990, 55131, 35211, 35210, 53899) and one (n=1) Borreliella garinii isolate (ATCC 51991) by broth microdilution technique (Dever, L. L., Jorgensen, J. H., Barbour, A. G. In vitro antimicrobial susceptibility testing of Boreliella burgdorferi: a microdilution MIC method and time-kill studies. J Clin Microbiol. 30(10), 2692-2697. (1992) doi: 10.1128/jcm.30.10.2692-2697.1992; Feng, J., Wang, T., Shi, W., et al. Identification of novel activity against Boreliella burgdorferi persisters using an FDA approved drug library. Emerg Microb Infect 3, e49 (2014) doi: 10.1038/emi.2014.53). The general procedures for broth microdilution were done according to the CLSI guidelines M7 and M100-S31 (CLSI. (2018) Methods for dilution antimicrobial susceptibility tests for bacteria that grow aerobically; Eleventh edition. M07.; CLSI. (2021) Performance Standards for Antimicrobial Susceptibility Testing; Thirty-first Edition. M100-S31).
Briefly, Borreliella spp. were grown at 36° C. under microaerophilic conditions in BSK II medium until the logarithmic or stationary growth phase was reached. The growth phase was determined by semiquantitative measurement of active and dormant cells by fluorescence microscopy of cells stained with the fluorescent dyes SYBR Green I and propidium iodide. An inoculum of 10^5−10^6 spirochetes/mL was used to inoculate broth microdilution plates containing serially 2-fold diluted test compounds.

[2] = system: T. pallidum cells (Chicago strain); assay: Rabbit model of intradermal Treponema pallidum infection (syphilis); format: in vivo
Method: The preclinical study to test Lefamulin against T. pallidum was conducted in analogy to an investigation of the antibiotic compound linezolid (Haynes, A. M., Giacani, L., Vall Mayans, M., et al. Efficacy of linezolid on Treponema pallidum, the syphilis agent: A preclinical study. eBioMedicine 65, 103281 (2021). doi: 10.1016/j.ebiom.2021.103281).
In the syphilis infection model, each animal was infected intradermally (ID) with 10^6 freshly harvested, viable and infectious T. pallidum cells (Chicago strain) per site of infection on 10 sites on their shaved backs to induce appearance of primary syphilis lesions. Treponemal viability prior to ID infection was assessed by dark field microscopy (DFM). A dose of infectious treponemes (10^6/site of infection) induces the appearance of an erythematous lesion at the inoculation site within ˜5 days post-inoculation. Overall, the arch of lesion progression from the erythematous stage to the indurated, ulcerated, and healed stages encompasses approximately 4 weeks.
Herein, three groups of three rabbits were infected. Three animals were treated orally with 70 mg/kg Lefamulin every 12 h for 3 days (day 7 to day 10 post-infection). As positive control group, another three animals were treated with Benzathine penicillin G (BPG) as single intramuscular (IM) injection (300,000 units; equivalent w/w to 4.8 million units for humans). One group (n=3) served as untreated control. The cutaneous lesions were monitored macroscopically for clinical development, documented by photography on regular basis and measured for their diameter every day for a period of 40 days.
Treponemal burden within these lesions was assessed by taking needle aspirates from the lesions and analyzing the aspirates for pathogen cell count using DFM as well as quantification of treponemal DNA extracted from the aspirates at day 3, 8, 12, and 16 Additionally, mRNA extracted from lesion biopsies obtained post-treatment initiation was also quantified as a surrogate of viability. The gene copy number of the T. pallidum tp0574 gene was quantified by qPCR. Additionally, the tp0574 gene message was normalized to the message of the rabbit housekeeping gene HPRT to evaluate the burden of viable T. pallidum cells within lesion biopsies.

[3] = system: T. pallidum; assay: Rabbit infectivity test (RIT) with popliteal lymph nodes; format: in vivo
Source text: The test rabbits from Example 3 were used for a subsequent study in a RIT, wherein samples from the popliteal lymph nodes were transferred to new (naïve) rabbits, which were subsequently analyzed for disease symptoms and tested serologically (Haynes, A. M., Giacani, L., Vall Mayans, M., et al. Efficacy of linezolid on Treponema pallidum, the syphilis agent: A preclinical study. eBioMedicine 65, 103281 (2021). Doi: 10.1016/j.ebiom.2021.103281).
Following euthanasia, popliteal lymph nodes (LN) from all the rabbits in the Lefamulin, BPG, and control groups were harvested. Lymph nodes from each rabbit were pooled and homogenized in a solution containing equal amounts of sterile saline and serum from an uninfected rabbit. One milliliter of homogenate from each test rabbit was then inoculated into the left testicle of a naïve rabbit to perform the RIT. For the rabbit, which died at day 3 post-treatment initiation, lymph nodes were harvested and transferred to a RIT rabbit within 1 hour after the animal's death.
Inoculated animals were checked for orchitis twice weekly. Serum was collected monthly for three months and analyzed with two different serological tests, i.e. VDRL (Venereal Disease Research Laboratory; Becton-Dickinson, Franklin Lanes, NJ) and TPPA (Treponema pallidum Particle Agglutination; Fujirebio, Malvern, PA). Also an FTA-ABS test (Fluorescent Treponemal Antibody-Absorption; Trinity Biotech, Jamestown, NY) was performed.

[4] = 192 h, stationary growth phase cultures, read after 8 days, read-out: MIC (μg/mL) for Stationary Growth Phase Culture (n = 6)
[5] = logarithmic growth phase cultures, read after 5 or 6 days, read-out: MIC (μg/mL) for Logarithmic Growth Phase Culture (n = 6)

MIC [1, 4] [µg/mL]	MIC [1, 5] [µg/mL]	SMILES	other results
0.03 to 0.12 (≈ 0.0821 to 0.328 µM)	0.03 to 0.12 (≈ 0.0821 to 0.328 µM)	CC1(C)S[C@@H]2[C@H](NC(=O)[C@H](N)c3ccc(O)cc3)C(=O)N2[C@H]1C(=O)O [Amoxicillin]	–
0.001 to 0.004 (≈ 0.00134 to 0.00534 µM)	0.001 to 0.004 (≈ 0.00134 to 0.00534 µM)	CC[C@H]1OC(=O)[C@H](C)[C@@H](O[C@H]2C[C@@](C)(OC)[C@@H](O)[C@H](C)O2)[C@H](C)[C@@H](O[C@@H]2O[C@H](C)C[C@H](N(C)C)[C@H]2O)[C@](C)(O)C[C@@H](C)CN(C)[C@H](C)[C@@H](O)[C@]1(C)O [Azithromycin]	–
–	–	CC1(C)S[C@@H]2[C@H](NC(=O)Cc3ccccc3)C(=O)N2[C@H]1C(=O)O.CC1(C)S[C@@H]2[C@H](NC(=O)Cc3ccccc3)C(=O)N2[C@H]1C(=O)O.c1ccc(CNCCNCc2ccccc2)cc1 [BPG, Benzathine penicillin G]	lesion progression past the initial state of mild induration ([2]; 40 days observation): None of the lesions in these two groups progressed past the initial state of mild induration; T. pallidum mRNA (tp0574 message normalized to HPRT) in lesion biopsies ([2]; day 3 post-treatment initiation): absent; measured sites resolved ([2]; day 9 post-BPG administration): 95%; measured sites resolved ([2]; day 12 post-treatment): 100%; T. pallidum cells in lesion aspirates by DFM ([2]; since day 3 post-treatment initiation): no treponemal bacteria could be found; orchitis or seroconversion (VDRL, TPPA) of RIT rabbits ([3]; 3-months observation period, lymph nodes from treated test rabbits): None of the animals developed orchitis or seroconverted; seroconversion in FTA-ABS test ([3]; RIT rabbits, control animals 3+ reactivity or higher): none of the BGP or Lefamulin treated animals seroconverted
0.004 to 0.03 (≈ 0.00721 to 0.0541 µM)	0.004 to 0.016 (≈ 0.00721 to 0.0289 µM)	CO/N=C(\C(=O)N[C@@H]1C(=O)N2C(C(=O)O)=C(CSc3nc(=O)c(=O)[nH]n3C)CS[C@H]12)c1csc(N)n1 [Ceftriaxone]	–
0.016 to 0.25 (≈ 0.0377 to 0.589 µM)	0.016 to 0.25 (≈ 0.0377 to 0.589 µM)	CO/N=C(\C(=O)N[C@@H]1C(=O)N2C(C(=O)O)=C(COC(N)=O)CS[C@H]12)c1ccco1 [Cefuroxime]	–
0.03 to 0.5 (≈ 0.0675 to 1.13 µM)	0.03 to 0.5 (≈ 0.0675 to 1.13 µM)	C[C@H]1c2cccc(O)c2C(=O)C2=C(O)[C@]3(O)C(=O)C(C(N)=O)=C(O)[C@@H](N(C)C)[C@@H]3[C@@H](O)[C@@H]21 [Doxycycline]	–
